Drawing on patent US9815835B2, “Substituted polycyclic carbamolypyridone derivative” (priority 2009, dated 2017), this text covers IC50 and EC50 for 54 compounds.

Experiment [1] deals with cap-dependent endonuclease (RNP fraction containing PB1•PB2•PA complex) (Influenza A virus, UniProt P15659). Description: biochemical. The settings on record: RNP from A/WSN/33 virus, capped Cy3/BHQ2 30mer RNA substrate, 60 minutes at room temperature; read-out: CEN IC50.
In experiment [2] the test system is influenza virus. Description: microbe, parasite or virus in culture. In kind it is cell-based, influenza virus (MDBK or MDCK cells). The conditions noted are these: unidentified influenza virus, 72 h, read-out: CPE EC50, effective concentration to achieve 50% CPE inhibition, 3 days incubation, WST-8. In general terms: Tetrazolium dyes change colour on reduction, which living cells bring about.

SMILES strings stand for the structures.

With `COCCN1CN(C2c3ccccc3CSc3cc(F)ccc32)n2ccc(=O)c(O)c2C1=O` (stereo not drawn) [Example 337], the IC50 (commonly the concentration needed to halve the response being measured) in experiment [1] is 58 nM. Moreover, the EC50 in experiment [2] turned out to be 28 nM.
The like results for `COCCN1CN(C2c3ccccc3CSc3ccc(F)cc32)n2ccc(=O)c(O)c2C1=O` (stereo not drawn) [Example 338] were, in that order, 74 nM and 85 nM.
On to `O=C1c2c(O)c(=O)ccn2N(C2c3ccccc3CSc3c(Cl)cccc32)CN1C1CC1` (stereo not drawn) [Example 341], for which the IC50 in experiment [1] came to 16 nM. Moreover, the EC50 in experiment [2] was determined as 27 nM.
The like results for `CC(N1CN(C2c3ccccc3CSc3c(Cl)cccc32)n2ccc(=O)c(O)c2C1=O)C(F)(F)F` (stereo not drawn) [Example 343] were, in that order, 122 nM and 18 nM.
The like results for `CC(C)N1CN(C2c3cc(F)ccc3CSc3ccc(F)cc32)n2ccc(=O)c(O)c2C1=O` (stereo not drawn) [Example 346] were, in that order, 28 nM and 18 nM.
On to `CN1CN(C2c3ccccc3CSc3c(Cl)cccc32)n2ccc(=O)c(O)c2C1=O` (stereo not drawn) [Example 347], for which the IC50 in experiment [1] was 14 nM. The EC50 in experiment [2] worked out at 17 nM.
For the compound `CN1CN(C2c3ccccc3CSc3ccc(F)cc32)n2ccc(=O)c(O)c2C1=O` (stereo not drawn) [Example 349], in experiment [1], the IC50 stood at 53 nM. Further, in experiment [2], the EC50 was found to be 75 nM.
The like results for `CN1CN(C2c3ccccc3CSc3cc(F)ccc32)n2ccc(=O)c(O)c2C1=O` (stereo not drawn) [Example 355] were, in that order, 40 nM and 75 nM.
The like results for `Cc1ccc2c(c1)C(N1CN(C(C)C)C(=O)c3c(O)c(=O)ccn31)c1ccccc1CS2` (stereo not drawn) [Example 357] were, in that order, 138 nM and 386 nM.
For the compound `Cc1ccc(C)c2c1SCc1ccccc1C2N1CN(C(C)C)C(=O)c2c(O)c(=O)ccn21` (stereo not drawn) [Example 358], the IC50 in experiment [1] worked out at 51 nM. In experiment [2], the EC50 is 69 nM.
The like results for `O=C1c2c(O)c(=O)ccn2N(C2c3ccccc3CSc3ccccc32)CN1CCO` (stereo not drawn) [Example 360] were, in that order, 42 nM and 87 nM.
Take `O=C1c2c(O)c(=O)ccn2N(C2c3ccccc3CCc3ccccc32)CN1CCO` [Example 361]: the IC50 in experiment [1] turned out to be 39 nM. Moreover, in experiment [2], the EC50 came out at 145 nM.
The like results for `CC(CO)N1CN(C2c3ccccc3CSc3ccccc32)n2ccc(=O)c(O)c2C1=O` (stereo not drawn) [Example 363] were, in that order, 58 nM and 67 nM.
The like results for `O=C1c2c(O)c(=O)ccn2N(C2c3ccccc3CSc3ccccc32)CN1CC(O)CO` (stereo not drawn) [Example 365] were, in that order, 41 nM and 2250 nM.
Take `O=C1c2c(O)c(=O)ccn2N(C2c3ccccc3CSc3ccccc32)CN1C(CO)CO` (stereo not drawn) [Example 366]: the IC50 in experiment [1] turned out to be 90 nM. For the same compound, the EC50 in experiment [2] came out at 838 nM.
Consider `CC(CO)N1CN(C(c2ccccc2)c2ccccc2)n2ccc(=O)c(O)c2C1=O` (stereo not drawn) [Example 368], for which the IC50 in experiment [1] amounted to 140 nM. Also, in experiment [2], the EC50 was found to be 470 nM.
The like results for `CC(CCO)N1CN(C(c2ccccc2)c2ccccc2)n2ccc(=O)c(O)c2C1=O` (stereo not drawn) [Example 369] were, in that order, 294 nM and 434 nM.
The like results for `CC(C)(O)CN1CN(C2c3ccccc3CCc3ccccc32)n2ccc(=O)c(O)c2C1=O` [Example 370] were, in that order, 113 nM and 61 nM.
Consider `CC(C)(O)CN1CN(C2c3ccccc3CSc3ccccc32)n2ccc(=O)c(O)c2C1=O` (stereo not drawn) [Example 371], for which, in experiment [1], the IC50 was 161 nM. Moreover, the EC50 in experiment [2] came out at 74 nM.
The like results for `O=C1c2c(O)c(=O)ccn2N(C2c3ccccc3CSc3ccccc32)CN1CC1(O)CCCCC1` (stereo not drawn) [Example 372] were, in that order, 164 nM and 146 nM.
The like results for `O=C1c2c(O)c(=O)ccn2N(C2c3ccccc3CSc3ccccc32)CN1[C@H](CO)c1ccccc1` (stereo partly drawn) [Example 376] were, in that order, 63 nM and 92 nM.
The like results for `CC(C)[C@@H](CO)N1CN(C2c3ccccc3CSc3ccccc32)n2ccc(=O)c(O)c2C1=O` (stereo partly drawn) [Example 378] were, in that order, 47 nM and 22 nM.
Take `CC(C)N1CN(C2c3ccccc3CCc3c(CO)cccc32)n2ccc(=O)c(O)c2C1=O` (stereo not drawn) [Example 384]: the IC50 in experiment [1] was found to be 153 nM. Further, the EC50 in experiment [2] was 293 nM.
The like results for `CC(C)N1CN([C@@H]2c3ccccc3[C@@H]3[C@H](c4ccccc42)C3(F)F)n2ccc(=O)c(O)c2C1=O` [Example 386] were, in that order, 75 nM and 96 nM.
For the compound `CC(C)N1CN(C2c3ccccc3NC(=O)c3ccccc32)n2ccc(=O)c(O)c2C1=O` (stereo not drawn) [Example 387], the IC50 in experiment [1] came out at 300 nM. Further, in experiment [2], the EC50 was found to be 1150 nM.
As to `CC(C)N1CN(C2c3ccccc3CCc3ccsc32)n2ccc(=O)c(O)c2C1=O` (stereo not drawn) [Example 388], the IC50 in experiment [1] is 133 nM. Besides, the EC50 in experiment [2] stood at 63 nM.
The like results for `CC(C)N1CN(C2c3ccccc3COc3c(Cl)cccc32)n2ccc(=O)c(O)c2C1=O` (stereo not drawn) [Example 390] were, in that order, 95 nM and 29 nM.
Regarding `O=C1c2c(O)c(=O)ccn2N(C2c3ccccc3COc3ccccc32)CN1C1CC1` (stereo not drawn) [Example 392], the IC50 in experiment [1] was found to be 153 nM. Further, the EC50 in experiment [2] was 25 nM.
On to `COCCN1CN(C2c3ccccc3COc3ccccc32)n2ccc(=O)c(O)c2C1=O` (stereo not drawn) [Example 394], for which the IC50 in experiment [1] stood at 87 nM. In experiment [2], the EC50 came to 64 nM.
For the compound `CN1CN(C2c3ccccc3COc3ccccc32)n2ccc(=O)c(O)c2C1=O` (stereo not drawn) [Example 395], the half-maximal inhibitory concentration (IC50) in experiment [1] is 43 nM. For the same compound, in experiment [2], the EC50 is 89 nM.
As for `CC(C)N1CN(C2c3ccccc3COc3ccc(Cl)cc32)n2ccc(=O)c(O)c2C1=O` (stereo not drawn) [Example 398], the IC50 in experiment [1] turned out to be 34 nM. Moreover, the EC50 in experiment [2] came out at 118 nM.
For the compound `CC(C)N1CN(C2c3ccccc3COc3cc(F)ccc32)n2ccc(=O)c(O)c2C1=O` (stereo not drawn) [Example 399], the IC50 in experiment [1] amounted to 105 nM. In experiment [2], the EC50 turned out to be 61 nM.
The like results for `COCCN1CN(C2c3ccccc3COc3c(F)cccc32)n2ccc(=O)c(O)c2C1=O` (stereo not drawn) [Example 400] were, in that order, 67 nM and 79 nM.
Consider `COCCN1CN(C2c3cc(F)ccc3COc3ccccc32)n2ccc(=O)c(O)c2C1=O` (stereo not drawn) [Example 404], for which, in experiment [1], the IC50 is 84 nM. Besides, the EC50 in experiment [2] was 63 nM.
Regarding `COCCN1CN(C2c3ccccc3OCc3c(F)cccc32)n2ccc(=O)c(O)c2C1=O` (stereo not drawn) [Example 405], the IC50 in experiment [1] was 74 nM. The EC50 in experiment [2] worked out at 51 nM.
The like results for `CC(C)N1CN(C2c3ccccc3OCc3c(F)cccc32)n2ccc(=O)c(O)c2C1=O` (stereo not drawn) [Example 407] were, in that order, 35 nM and 17 nM.
Consider `CC(C)N1CN(C2c3cc(Cl)ccc3COc3ccccc32)n2ccc(=O)c(O)c2C1=O` (stereo not drawn) [Example 408], for which the half-inhibitory concentration (IC50) in experiment [1] is 135 nM. The EC50 in experiment [2] is 61 nM.
The like results for `C[C@@H](N1CN(C2c3ccccc3COc3c(Cl)cccc32)n2ccc(=O)c(O)c2C1=O)C(F)(F)F` (stereo partly drawn) [Example 411] were, in that order, 46 nM and 14 nM.
The like results for `CC(C)c1cccc2c1OCc1ccccc1C2N1CN(C(C)C)C(=O)c2c(O)c(=O)ccn21` (stereo not drawn) [Example 412] were, in that order, 292 nM and 203 nM.
`C[C@H](N1CN([C@@H]2c3ccccc3SCc3c(Cl)cccc32)n2ccc(=O)c(O)c2C1=O)C(F)(F)F` [Example 419]: the IC50 in experiment [1] is 124 nM. Also, the EC50 in experiment [2] was found to be 19 nM.
The like results for `C[C@H](N1CN([C@H]2c3ccc(Cl)cc3CSc3ccccc32)n2ccc(=O)c(O)c2C1=O)C(F)(F)F` [Example 420] were, in that order, 58 nM and 21 nM.
The like results for `C[C@H](N1CN([C@H]2c3ccccc3CSc3c(Cl)cccc32)n2ccc(=O)c(O)c2C1=O)C(F)(F)F` [Example 423] were, in that order, 280 nM and 19 nM.
The like results for `C[C@@H](N1CN([C@H]2c3ccc(Br)cc3CSc3ccccc32)n2ccc(=O)c(O)c2C1=O)C(F)(F)F` [Example 433] were, in that order, 14 nM and 17 nM.
As to `C[C@@H](N1CN([C@H]2c3ccccc3SCc3c(F)cccc32)n2ccc(=O)c(O)c2C1=O)C(F)(F)F` [Example 445], the IC50 in experiment [1] came out at 13 nM. Also, the EC50 in experiment [2] came out at 4 nM.
On to `C[C@@H](N1CN([C@H]2c3ccc(Cl)cc3CSc3ccccc32)n2ccc(=O)c(O)c2C1=O)C(F)(F)F` [Example 446], for which, in experiment [1], the IC50 worked out at 7 nM. In experiment [2], the EC50 turned out to be 11 nM.
As to `C[C@H](N1CN([C@H]2c3cc(F)ccc3CSc3ccccc32)n2ccc(=O)c(O)c2C1=O)C(F)(F)F` [Example 447], the IC50 in experiment [1] is 96 nM. Besides, the EC50 in experiment [2] was 18 nM.
The like results for `C[C@@H](N1CN([C@H]2c3ccccc3CSc3cc(Cl)ccc32)n2ccc(=O)c(O)c2C1=O)C(F)(F)F` [Example 449] were, in that order, 62 nM and 21 nM.
The like results for `C[C@H](N1CN([C@@H]2c3ccccc3SCc3c(F)cccc32)n2ccc(=O)c(O)c2C1=O)C(F)(F)F` [Example 452] were, in that order, 177 nM and 16 nM.
The like results for `C[C@H](N1CN([C@@H]2c3ccccc3SCc3cccc(F)c32)n2ccc(=O)c(O)c2C1=O)C(F)(F)F` [Example 457] were, in that order, 242 nM and 14 nM.
Regarding `Cc1cccc2c1CSc1ccccc1[C@H]2N1CN([C@H](C)C(F)(F)F)C(=O)c2c(O)c(=O)ccn21` [Example 464], the 50% inhibitory concentration (IC50) in experiment [1] was 24 nM. The EC50 in experiment [2] was determined as 14 nM.
The like results for `C[C@@H](N1CN([C@@H]2c3ccccc3SCc3c(C#N)cccc32)n2ccc(=O)c(O)c2C1=O)C(F)(F)F` [Example 476] were, in that order, 31 nM and 14 nM.
Take `CN(C)CCN1CN(C2c3ccccc3CCc3ccccc32)n2ccc(=O)c(O)c2C1=O` [Example 478]: the IC50 in experiment [1] was determined as 88 nM. The EC50 in experiment [2] stood at 129 nM.
Take `CC(CN1CCOCC1)N1CN(C2c3ccccc3CCc3ccccc32)n2ccc(=O)c(O)c2C1=O` (stereo not drawn) [Example 482]: the IC50 in experiment [1] was 103 nM. Besides, in experiment [2], the EC50 turned out to be 31 nM.
For `CC(CN1CCN(C)CC1)N1CN(C2c3ccccc3CSc3ccccc32)n2ccc(=O)c(O)c2C1=O` (stereo not drawn) [Example 485], the IC50 in experiment [1] was determined as 221 nM. Moreover, in experiment [2], the EC50 is 424 nM.
